# Measured values taken from PubChem BioAssay AID1963451 (Molecular Pharmacology Branch, DTP, NCI, 2024).
# Test system: 521955-158-R6-J3-PDC complex spheroid growth, % test/control
# Assay: Anticancer human tumor 521955-158-R6-J3-PDC patient-derived pancreatic carcinoma cell line growth inhibition [Asc]
# Conditions: for IC50: curve of first compound; for viability, T/C: stronger effect = lower value
# Description: Multicellular complex tumor spheroid response to apoptosis pathway targeting inhibitors Alrizomadlin, Pelcitoclax, and Dasminapant in combination with a variety of drugs and investigational agents in selected tumor cell lines
# The MDM2 inhibitor alrizomadlin, the Bcl-2/Bcl-xL inhibitor pelcitoclax, and the IAPs inhibitor dasminapant were evaluated both individually and in combination with standard of care and investigational anticancer small molecules within a complex spheroid model of solid tumors. . Complex spheroids include a stromal component modeled by human endothelial cells (HUVEC) and fibroblasts modeled by human mesenchymal stem cells (MSCs). The concentration ranges selected for each drug and investigational agent were based upon clinically achievable concentrations if the clinical Cmax of the agent was known.
# Compounds. The drugs and investigational agents: alrizomadlin (APG-115; NSC831270), pelcitoclax (APG-1252; NSC835773), dasminapant (APG-1387;NSC834197), TAK-243 (NSC785004), copanlisib (NSC809693), olaparib (NSC753686), talazoparib (NSC767125), cobimetinib (NSC 768068), eltanexor (KPT-8602, NSC 794443), abemaciclib (NSC 768073), sotorasib (NSC818433), adagrasib (NSC 831453), MRTX-1133 (NSC 836407), Iadademestat (ORY1001, NSC 806812), and RMC-4630 (NSC839698), were obtained from the NCI Developmental Therapeutics Program Chemical Repository. The FDA-approved anticancer drug set is available from the Developmental Therapeutics Program at https://dtp.cancer.gov/organization/dscb/obtaining/available plates.htm. […] The stock solutions were prepared in dimethyl sulfoxide (DMSO, Sigma-Aldrich, St. Louis, MO, cat. D2650) at 800-fold the tested concentration and stored at -70 degrees C prior to their use. All drugs and investigational agents were tested over a range starting from a high concentration at or near the clinical Cmax and decreasing in half-log increments. If the clinical Cmax for an agent had not been determined, the highest concentration tested was 10 microM.
# The patient-derived cancer (PDC) cell lines include five colon adenocarcinomas: 186277-243-T-J2-PDC, 616215-338-R-J1-PDC, 439559-082-T-J2-PDC, 463943-066-T-J2-PDC, and 519858-162-T-J1-PDC; three pancreatic carcinomas: 323965-272-R-J2-PDC, 521955-158-R6-J3-PDC, and 521955-158-R2-J5-PDC; two uterine sarcomas: 327498-152-R-J2-PDC and 993429-296-R-J1-PDC; two rhabdomyosarcomas: 755483-174-R-J1-PDC and 772245-204-R-J1-PDC; two soft tissue sarcomas: 126254-015-R-J1-PDC and 494315-158-R-J1-PDC; two malignant fibrous histiocytomas: 317291-083-R-J1-PDC and 596521-263-R-J1-PDC; two breast carcinomas: 171881-019-R-J1-PDC and 885512-296-R-J2-PDC; and one ovarian carcinoma: 6556581-035-R-J-PDC were obtained from the NCI PDMR, (https://pdmr.cancer.gov). The established cell lines HSSY-2 synovial sarcoma (RRID:CVCL 8719), SYO-1 synovial sarcoma (RRID:CVCL_7146), MPNST malignant peripheral neural sheath tumor were obtained from the Sloan Kettering Institute. The following established cell lines were purchased from the American Type Culture Collection (ATCC, Manassas, VA), Sor the received from the NCI repository:, PANC-1 pancreatic carcinoma (CRL-1469, RRID:CVCL_0480), OVCAR-5 ovarian carcinoma (RRID:CVCL_1628), OVCAR-8 ovarian carcinoma (RRID:CVCL_1629), , MCF-7 breast carcinoma (CRL-12584, RRID:CVCL_0031), MDA-MB-231 breast carcinoma (CRL-12532, RRID:CVCL_0062), NCI-H1876 small cell lung carcinoma (CRL-5902, RRID:CVCL_1503), NCI-H510A small cell lung carcinoma (HTB-184, RRID:CVCL_1565), NCI-H1417 (CRL-5869, RRID:CVCL_1469), and NCI-H196 small cell lung carcinoma (CRL-5823, RRID:CVCL_1509). Dr. Peter Houghton (Greehey Children's Cancer Research Institute, University of Texas Health Science Center, San Antonio, TX) provided Rh-18 rhabdomyosarcoma (RRID:CVCL_1659). Pooled donor human umbilical vein endothelial cells (HUVEC, Lonza, cat. CC-2519) and human mesenchymal stem cells (hMSC, Lonza, cat. PT-2501) were purchased from Lonza (Walkersville, MD).
# Cell Culture. […]
# 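Also: spheroids exposed to compounds for 7 days.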
# 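For viability, T/C in this document: 100% = DMSO vehicle control wells.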
smiles,measurement,setting,value
NC(=O)C(=Cn1cnc(-c2cc(C(F)(F)F)cc(C(F)(F)F)c2)n1)c1cncnc1 + Cc1c(S(C)(=O)=O)c(-c2cc(F)cc(N3CCN(c4ccc(NS(=O)(=O)c5ccc(NC(CCN6CCC(C(=O)OCCCP(=O)(O)O)CC6)CSc6ccccc6)c(S(=O)(=O)C(F)(F)F)c5)cc4)CC3)c2)c(-c2ccc(Cl)cc2)n1C(C)C,IC50,second compound 0.0316 µM,> 300 nM
same,IC50,second compound 0.1 µM,> 300 nM
same,IC50,second compound 0.316 µM,> 300 nM
same,IC50,second compound 1 µM,< 0.949 nM
same,IC50,second compound 3.16 µM,< 0.949 nM
same,IC50,second compound 10 µM,< 0.949 nM
same,"viability, T/C","second compound 0.0316 µM, first compound 0.000949 µM",95%
same,"viability, T/C","second compound 0.0316 µM, first compound 0.003 µM",97.1%
same,"viability, T/C","second compound 0.0316 µM, first compound 0.00949 µM",60.6%
same,"viability, T/C","second compound 0.0316 µM, first compound 0.03 µM",82.1%
same,"viability, T/C","second compound 0.0316 µM, first compound 0.0949 µM",103%
same,"viability, T/C","second compound 0.0316 µM, first compound 0.3 µM",108%
same,"viability, T/C","second compound 0.1 µM, first compound 0.000949 µM",84%
same,"viability, T/C","second compound 0.1 µM, first compound 0.003 µM",90.4%
same,"viability, T/C","second compound 0.1 µM, first compound 0.00949 µM",70.9%
same,"viability, T/C","second compound 0.1 µM, first compound 0.03 µM",62.1%
same,"viability, T/C","second compound 0.1 µM, first compound 0.0949 µM",89.3%
same,"viability, T/C","second compound 0.1 µM, first compound 0.3 µM",85.9%
same,"viability, T/C","second compound 0.316 µM, first compound 0.000949 µM",70.3%
same,"viability, T/C","second compound 0.316 µM, first compound 0.003 µM",49%
same,"viability, T/C","second compound 0.316 µM, first compound 0.00949 µM",47.2%
same,"viability, T/C","second compound 0.316 µM, first compound 0.03 µM",47.5%
same,"viability, T/C","second compound 0.316 µM, first compound 0.0949 µM",69.6%
same,"viability, T/C","second compound 0.316 µM, first compound 0.3 µM",43.5%
same,"viability, T/C","second compound 1 µM, first compound 0.000949 µM",47.1%
same,"viability, T/C","second compound 1 µM, first compound 0.003 µM",30.3%
same,"viability, T/C","second compound 1 µM, first compound 0.00949 µM",34.6%
same,"viability, T/C","second compound 1 µM, first compound 0.03 µM",33%
same,"viability, T/C","second compound 1 µM, first compound 0.0949 µM",43.8%
same,"viability, T/C","second compound 1 µM, first compound 0.3 µM",18.4%
same,"viability, T/C","second compound 3.16 µM, first compound 0.000949 µM",19.8%
same,"viability, T/C","second compound 3.16 µM, first compound 0.003 µM",21.9%
same,"viability, T/C","second compound 3.16 µM, first compound 0.00949 µM",22.6%
same,"viability, T/C","second compound 3.16 µM, first compound 0.03 µM",20.9%
same,"viability, T/C","second compound 3.16 µM, first compound 0.0949 µM",16.2%
same,"viability, T/C","second compound 3.16 µM, first compound 0.3 µM",5.69%
same,"viability, T/C","second compound 10 µM, first compound 0.000949 µM",12.2%
same,"viability, T/C","second compound 10 µM, first compound 0.003 µM",16.9%
same,"viability, T/C","second compound 10 µM, first compound 0.00949 µM",11.6%
same,"viability, T/C","second compound 10 µM, first compound 0.03 µM",10.2%
same,"viability, T/C","second compound 10 µM, first compound 0.0949 µM",9.2%
same,"viability, T/C","second compound 10 µM, first compound 0.3 µM",0.76%
